Laboratory results reported in PMC8811960, “A Novel 2-Carbon-Linked Dimeric Artemisinin With Potent Antileukemic Activity and Favorable Pharmacology” (Frontiers in Oncology, 2022).

Columns and labels:
[1] = tested on: K562; assay: alamarBlue growth inhibition, K562; assay type: cell-based; conditions: Homo sapiens, K562, 48h, mean of 2 independent assays ± SD
Experimental: (§1) Cytotoxicity was assessed using alamarBlue assays (Life Technologies, Grand Island, NY) following manufacturer’s guidelines. Cell death was verified by Annexin V/7-aminoactinomycin D (7AAD) staining (BioLegend, San Diego, CA) per manufacturer’s guidelines.

[2] = tested on: KG1a; assay: alamarBlue growth inhibition, KG1a; assay type: cell-based; conditions: Homo sapiens, KG-1a, 48h, mean of 2 independent assays ± SD
Experimental: as §1

[3] = tested on: ML2; assay: alamarBlue growth inhibition, ML2; assay type: cell-based; conditions: Homo sapiens, ML-2, ML2, 48h, mean of 2 independent assays ± SD
Experimental: as §1

[4] = tested on: MOLM14; assay: alamarBlue growth inhibition, MOLM14; assay type: cell-based; conditions: Homo sapiens, MOLM-14; MOLM14, 48h, alamarBlue, mean of 2 independent assays ± SD; read-out: IC50
Experimental: as §1
In this experiment, provided to show the entire concentration:response range, MOLM14 AML cells were cultured with a range of concentrations of artesunate (AS), ART838, ART631, and ART576 for 48h. Graph indicates growth inhibition relative to vehicle (DMSO)-treated controls by alamarBlue absorbance assays. Data points and error bars represent mean and SD of 3 independent experiments done in triplicate.

[5] = tested on: MV4;11; assay: alamarBlue growth inhibition, MV4;11; assay type: cell-based; conditions: Homo sapiens, MV4;11, 48h, mean of 2 independent assays ± SD
Experimental: as §1

[6] = tested on: THP1; assay: alamarBlue growth inhibition, THP1; assay type: cell-based; conditions: Homo sapiens, THP-1, THP1, 48h, mean of 2 independent assays ± SD
Experimental: as §1

[7] = Stability in mouse plasma (EDTA); assay type: in vitro ADME; conditions: 10 µM, 37°C, 1h
Experimental: (§2) The metabolic stability of ART631 was assessed in human and mouse plasma and liver microsomes (LM). For phase I microsomal stability assays, analogs (10 µM in <1% acetonitrile) were incubated in PBS containing liver microsomes, with or without cofactors ([22]). Microsomal controls (without cofactors) were used to determine non-enzymatic degradation. All experiments were incubated at 37°C for 1h and performed in duplicate. Reactions were stopped with acetonitrile and analyzed as described below.
ART631 was extracted from 25 µL plasma or microsomal solutions with 100 µL acetonitrile containing artemisinin (i.e. the natural product) as internal standard. […] Mobile phase A was ammonium acetate (2mM) containing 0.1% formic acid, and mobile phase B was acetonitrile containing 0.1% formic acid. The gradient started with mobile phase B and was held at 40% for 0.5 minutes with a flow rate of 0.4 mL/min, then increased to 100% over 1.5 minutes and held for 2.0 minutes, and finally returned back to 40% mobile phase B and allowed to equilibrate for 2.0 minutes. An AB Sciex 5500 triple quadrupole mass spectrometer operated in positive electrospray ionization mode was used for the detection of ART631. For stability studies, the ratio of ART631 to the internal standard, artemisinin, was assessed. […]

[8] = Stability in plasma; assay type: in vitro ADME, human and mouse; conditions: species not given
Experimental: as §2
We compared the in vitro stability of ART576 and ART631 ( Table 3 ). ART576 was stable in plasma (<10% degradation), but unstable with degradation of >70% in human liver microsomes with co-factors and >90% in mouse liver microsomes with co-factors ( Table 3 ).

[9] = tested on: MOLM14 cells; assay: Total cellular ROS (CM-H2DCFDA flow cytometry); assay type: cell-based, human; conditions: MOLM14, 200 nM, 18h
Experimental: […] Cells were then treated with ART631 (200 nM) or DMSO control for 18h, with subsequent analysis by flow cytometry. Western blotting and quantitative reverse transcription PCR (qRT-PCR) to assess for molecular markers of ROS-mediated apoptosis were performed as previously described ([20]).
Figure 4 ART631 elevated ROS and CHOP levels and reduced MCL1 expression in MOLM14 AML cells. […] They were then analyzed by flow cytometry. Graph represents %CM-H2DCFDA fluorescence compared to vehicle (DMSO) control treated cells. Error bars represent SD from 3 independent experiments. (B) MOLM14 AML cells were treated for 18h with vehicle, AS (10 uM), ART838 (200 nM), ART631 (200 nM), cytarabine (AraC; 150 nM), or SOR (5 uM). Protein was isolated and western blotted for MCL1, BCL2, CHOP, and β-actin. (C) MOLM14 cells were treated as in (B) for 18h, total RNA isolated, cDNA synthesized, and SYBR Green qRT-PCR performed in triplicates. Ct values were normalized to housekeeping gene GAPDH and fold change shown relative to vehicle (DMSO) control. Error bars represent SD from 3 independent experiments done in triplicate.

[10] = tested on: C/EBP homologous protein (CHOP); assay: Western blot for CHOP; assay type: cell-based, human; conditions: MOLM14, 200 nM, 18h, similar results in MV4;11 and ML2
Experimental: (§3) Cells were pre-treated with […] ROS detection reagent 5-(and 6-)-chloromethyl-2’,7’-dichlorodihydrofluorescein diacetate (CM-H2DCFDA, Life Technologies) for 30 min, followed by the iron chelator deferoxamine mesylate (DFO; 11 mM) for 60 min. Cells were then treated with ART631 (200 nM) or DMSO control for 18h, with subsequent analysis by flow cytometry. Western blotting and quantitative reverse transcription PCR (qRT-PCR) to assess for molecular markers of ROS-mediated apoptosis were performed as previously described ([20]).
Figure 4 ART631 elevated ROS and CHOP levels and reduced MCL1 expression in MOLM14 AML cells. (A) MOLM14 AML cells were pre-treated with ROS detection reagent CM-H2DCFDA ([…]) for 30 min, pre-treated with deferoxamine mesylate (DFO; 11 mM) for 60 min, and then treated with ART631 (200 nM) or DMSO control for 18h. They were then analyzed by flow cytometry. Graph represents %CM-H2DCFDA fluorescence compared to vehicle (DMSO) control treated cells. Error bars represent SD from 3 independent experiments. (B) MOLM14 AML cells were treated for 18h with vehicle, AS (10 uM), ART838 (200 nM), ART631 (200 nM), cytarabine (AraC; 150 nM), or SOR (5 uM). Protein was isolated and western blotted for MCL1, BCL2, CHOP, and β-actin. (C) MOLM14 cells were treated as in (B) for 18h, total RNA isolated, cDNA synthesized, and SYBR Green qRT-PCR performed in triplicates. […]

[11] = tested on: DDIT3; assay: qRT-PCR for DDIT3 mRNA; assay type: cell-based, human; conditions: MOLM14, 18h, ART631 200 nM, ART838 200 nM, AS 10 uM, similar results in MV4;11 and ML2
Experimental: as §3
Figure 4 ART631 elevated ROS and CHOP levels and reduced MCL1 expression in MOLM14 AML cells. (A) MOLM14 AML cells were pre-treated with ROS detection reagent CM-H2DCFDA ([…]) for 30 min, pre-treated with deferoxamine mesylate (DFO; 11 mM) for 60 min, and then treated with ART631 (200 nM) or DMSO control for 18h. They were then analyzed by flow cytometry. Graph represents %CM-H2DCFDA fluorescence compared to vehicle (DMSO) control treated cells. Error bars represent SD from 3 independent experiments. (B) MOLM14 AML cells were treated for 18h with vehicle, AS (10 uM), ART838 (200 nM), ART631 (200 nM), cytarabine (AraC; 150 nM), or SOR (5 uM). Protein was isolated and western blotted for MCL1, BCL2, CHOP, and β-actin. (C) MOLM14 cells were treated as in (B) for 18h, total RNA isolated, cDNA synthesized, and SYBR Green qRT-PCR performed in triplicates. Ct values were normalized to housekeeping gene GAPDH and fold change shown relative to vehicle (DMSO) control. Error bars represent SD from 3 independent experiments done in triplicate.

For C=CCO/N=C(/C[C@H]1O[C@@H]2O[C@@]3(C)CC[C@H]4[C@H](C)CC[C@@H]([C@H]1C)[C@@]24OO3)[C@H]1O[C@@H]2O[C@@]3(C)CC[C@H]4[C@H](C)CC[C@@H]([C@H]1C)[C@@]24OO3 [ART631], the IC50 [1] was > 1 µM, the IC50 [2] was 0.029 ± 0.002 µM and the IC50 [3] was 0.034 ± 0.004 µM. It also gave an IC50 [4] of 0.032 ± 0.004 µM, an IC50 [5] of 0.027 ± 0.002 µM and an IC50 [6] of 0.042 ± 0.002 µM. For the same compound, the “percentage remaining, Plasma (EDTA) Mouse” value [7] was 62%, the degradation in plasma [8] was > 40% and the “total cellular ROS levels” value [9] was “substantially increased”. The “level of CHOP protein” value [10] was “increase” and the “DDIT3 mRNA” value [11] was “increased”.
